Measured values as given in patent US4304833A, “Photographic products and processes employing triarylmethane compounds” (Polaroid Corporation, priority 1980, dated 1981).

Key:
Type in all cases: physicochemical
[1] = decolorization of methanol solution added to aqueous 1 N KOH
[2] = transmission densities of image-receiving components before and after bleaching with aqueous 1 N KOH; conditions: for Transmission density After Bleaching B / Transmission density After Bleaching G / Transmission density After Bleaching R: 1 N KOH
Description: (§1) Using appropriate solvents, samples of the dye compounds prepared in Examples 12, 13, 24, 26 and 39 were incorporated into the image-receiving layer 3 of image-receiving components comprising the structure set forth below by mixing a solution of each compound with a solution of the graft copolymer and coating this mixture on top of the timing layer to complete each of the image-receiving components.
A transparent 4 mil polyethylene terephthalate film base coated with, in succession:
1. as a polymeric acid layer, a mixture of about 9 parts of a partial butyl ester of polyethylene/maleic anhydride copolymer and 1 part of polyvinyl butyral coated at a coverage of about 2,500 mgs./ft.^2 ;
2. a timing layer containing a 14:1 ratio of a 60-30-4-6 tetrapolymer of butylacrylate, diacetone acrylamide, styrene and methacrylic acid and polyvinyl alcohol at a coverage of 500 mgs./ft.^2 ;
3. a graft copolymer of 4-vinylpyridine and vinylbenzyltrimethylammoniumchloride grafted on hydroxyethyl cellulose in a weight ratio of 2.2/1/2.2, respectively, coated at a coverage of 300 mgs./ft.^2 to provide an image-receiving layer and containing the selected dye compound at a coverage of 22 mgs./ft.^2.
Each of the image-receiving components containing the respective dye compounds were placed on a piece of gelatin coated Mylar, and the transmission densities for red (R), green (G) and blue (B) were recorded on a transmission densitometer. Then several drops of aqueous 1 N KOH were added to each gelatin sheet, and the image-receiving components were lightly pressed against the gelatin sheets to "bleach" the dye compounds. […]

[3] = bleaching rate (T 1/2) at pH=12 in buffer, visible spectrometer; conditions: for Wavelength (λmax-nm): pH=12 buffer; for T 1/2 (pH = 12): pH=12 buffer (aqueous), at λmax given
Experimental: The "bleaching" rates for the compounds of Examples 21, 23, 24, 39 and 41 were determined at pH=12 in terms of T 1/2. By T 1/2 is meant the time measured for one-half of the colored compound to decolorize. In making these determinations, a cell containing about 3 ml of pH=12 buffer (aqueous) was placed in a visible spectrometer. A sample of each compound was dissolved in methanol, and a small amount (less than 0.1 cc) of each solution was injected into the buffer. The optical densities were then recorded at a selected wavelength value to determine T 1/2.

[4] = decolorization of solution with aqueous 1N sodium hydroxide, then acidification; conditions: for color after decolorization with 1N NaOH and lowering to pH 1: methanol solution, aqueous hydrochloric acid to pH 1
Experimental: Also, samples of the compounds prepared in Examples 24, 26 and 39 above were dissolved in a small amount of methanol, and aqueous 1N sodium hydroxide was added to each solution to decolorize the compound.

[5] = absorption measured in ethanol
Experimental: (c) To a stirred slurry of the phthalol acyl derivative obtained in step b (7.4 g; 0.0155 M), sodium bicarbonate (6.51 g; 0.078 M) and water (200 ml) was added dropwise, a solution of 4.44 g (0.018 M) iodine in 175 ml methylene chloride. After a total of 20 minutes of stirring at room temperature, the aqueous layer was separated and neutralized by adding it to one liter of water containing 15 ml concentrated hydrochloric acid. The aqueous fraction was extracted with methylene, chloride, the organic layer was dried over sodium sulfate and the solvent was removed in vacuo. The dark orange residue was purified via medium pressure column chromatography (silica gel) methanol-methylene chloride; methanol content varied from 0.5-2%). The title compound was isolated as an orange glass. (λmax 424 nm, Epsilon 22,500 as measured in ethanol)

[6] = bleaching of TLC spot treated with 1 N NaOH
Experimental: (c) β-(methylsulfonyl)ethylchloroformate (196 mg) in 8 ml of toluene was added dropwise over 20 minutes to a refluxing solution of 317.3 mg of the compound prepared in step (b) in 15 ml toluene. The yellow mixture was allowed to stir under reflux for an additional hour after addition was complete. The reaction mixture was a deep yellow. […] The yellow spot representing the title compound when treated with 1 N NaOH produced a magenta color which bleached in approximately 5 seconds. The solvent was removed from the remaining reaction mixture under vacuum to give a yellow solid. Preparative TLC with 150 mg of solid in 4 ml tetrahydrofuran using 10% methanol/chloroform gave a yellow band which was separated and washed with acetone to yield approximately 5 mg of the title compound.

[7] = bleaching of dye in image-receiving layer film with aqueous 1 N NaOH; conditions: dye in image-receiving layer 3
Description: as §1

[8] = addition of aqueous base (1 N NaOH) to methanol and acetone solutions
Description: The title compound gave yellow solutions in methanol and acetone.

[9] = decolorization half-life of acetone solution in pH=12 buffer
Experimental: A sample of an acetone solution of the purified dye compound was added to fresh pH=12 buffer and the first half-life (T 1/2) and the second half-life (T 1/2) were measured giving the following results wherein OD refers to optical density. By T 1/2 is meant the time measured for one-half of said colored compound to decolorize.
The λmax of the pure title compound was 560 nm as measured in acetone--pH 12 buffer, and the T 1/2 values were measured at this wavelength.

[10] = 22 mgs./ft.^2, after 15 to 60 seconds
[11] = 22 mgs./ft.^2, coating stored for over 3 months
[12] = coating stored for over 3 months, bleaching time about 3 minutes
[13] = Experiment 1, pH=12 buffer, 560 nm
[14] = Experiment 2, pH=12 buffer, 560 nm

Structure (SMILES)	Transmission density Before Bleaching B ([2]; 22 mgs./ft.^2)	Transmission density Before Bleaching G ([2]; 22 mgs./ft.^2)	Transmission density Before Bleaching R ([2]; 22 mgs./ft.^2)	Transmission density After Bleaching B [2, 10]	Transmission density After Bleaching G [2, 10]	Transmission density After Bleaching R [2, 10]	Wavelength (λmax-nm) [3]	T 1/2 (pH = 12) [3]	further results
CC(=O)N(C)S(=O)(=O)c1ccccc1C(=C1C=C(C(O)(C(F)(F)F)C(F)(F)F)C(=O)c2ccccc21)c1cc2c3c(c1)CCCN3CCC2 [Example 9]	–	–	–	–	–	–	–	–	decolorization time [1]: approximately 5 seconds
COC1=CC(=C(c2cc(OC)c(O)c(OC)c2)c2ccccc2S(=O)(=O)N(C)C(C)=O)C=C(OC)C1=O [Example 23]	–	–	–	–	–	–	640 nm	158 sec.	–
CN(C(=O)OCCS(C)(=O)=O)S(=O)(=O)c1ccccc1C(=C1C=C(C(O)(C(F)(F)F)C(F)(F)F)C(=O)c2ccccc21)c1cc2c3c(c1)CCCN3CCC2 [Example 26]	–	–	–	–	–	–	–	–	color after decolorization with 1N NaOH and lowering to pH 1 [4]: remained colorless even at pH 1; Transmission density Before Bleaching B [2, 11]: .05; Transmission density Before Bleaching G [2, 11]: .06; Transmission density Before Bleaching R [2, 11]: .19; Transmission density After Bleaching B [2, 12]: .02; Transmission density After Bleaching G [2, 12]: .00; Transmission density After Bleaching R [2, 12]: .02; decolorization (in words) [1]: decolorized substantially instantaneously
COCC(=O)OCc1ccccc1C(=C1C=C(OC)C(=O)C(OC)=C1)c1cc(OC)c(O)c(OC)c1 [Example 39]	.59	.03	.01	.01	.00	.00	640 nm	44 sec.	color after decolorization with 1N NaOH and lowering to pH 1 [4]: remained colorless even at pH 1
COC1=CC(=C(c2cc(OC)c(O)c(OC)c2)c2ccccc2COC(=O)COc2ccccc2)C=C(OC)C1=O [Example 41]	–	–	–	–	–	–	640 nm	18 sec.	–
CC1=CC(=C(c2cc(C)c(O)c(C)c2)c2ccccc2COC(=O)COCC(=O)O)C=C(C)C1=O [Example 42]	–	–	–	–	–	–	–	–	λmax [5]: 424 nm; Epsilon ([5]; at λmax, in M-1 cm-1 (unit assumed)): 22,500
CN(Cc1ccccc1C(=C1C=CC(=O)C=C1)c1ccc(O)cc1)C(=O)OCCS(C)(=O)=O [Example 44]	–	–	–	–	–	–	–	–	color after acidifying and again treating with aqueous 1N NaOH ([4]; after bleaching in 1N NaOH): remained colorless; time to complete bleaching ([4]; aqueous 1N NaOH): ≤ 5 s; time to bleach of magenta color [6]: approximately 5 seconds
CN(C(=O)OCCS(C)(=O)=O)C(=O)c1ccccc1C(=C1C=CC(=O)C=C1)c1ccc(O)cc1 [Example 45]	–	–	–	–	–	–	–	–	bleaching of film with aqueous 1 N NaOH [7]: quickly bleached; bleaching on addition of aqueous base [8]: rapidly and irreversibly bleached to colorless; 1st T 1/2 [9, 13]: 10.0 s; 2nd T 1/2 [9, 13]: 8.5 s; Final OD [9, 13]: 0.02; OD at 1.5 sec. [9, 13]: 2.00; 1st T 1/2 [9, 14]: 9.5 s; 2nd T 1/2 [9, 14]: 8.5 s; Final OD [9, 14]: 0.01; Initial OD (extrapolated) [9, 14]: 1.15; OD at 3.0 sec. [9, 14]: 0.90; λmax ([9]; acetone--pH 12 buffer): 560 nm

More lines, main results first:

Transmission density Before Bleaching B ([2]; 22 mgs./ft.^2)	Transmission density Before Bleaching G ([2]; 22 mgs./ft.^2)	Transmission density Before Bleaching R ([2]; 22 mgs./ft.^2)	Transmission density After Bleaching B [2, 10]	Transmission density After Bleaching G [2, 10]	Transmission density After Bleaching R [2, 10]	Wavelength (λmax-nm) [3]	T 1/2 (pH = 12) [3]	Structure (SMILES)	further results
.45	.31	.00	.00	.01	.02	–	–	COC1=CC(=C(c2ccc(N3CCOCC3)cc2)c2ccccc2S(=O)(=O)N(C)C(=O)OCCS(C)(=O)=O)C=C(OC)C1=O [Example 12]	–
.09	.32	.21	.00	.01	.01	–	–	COC1=CC(=C(c2cc3c4c(c2)CCCN4CCC3)c2ccccc2S(=O)(=O)N(C)C(=O)OCCS(C)(=O)=O)C=C(OC)C1=O [Example 13]	–
–	–	–	–	–	–	640 nm	2 sec.	COC1=CC(=C(c2cc(OC)c(O)c(OC)c2)c2ccccc2S(=O)(=O)N(C)C(=O)OCCS(C)(=O)=O)C=C(OC)C1=O [Example 21]	–
.40	.00	.00	.00	.00	.01	590 nm	2 sec.	CC1=CC(=C(c2cc(C)c(O)c(C)c2)c2ccccc2S(=O)(=O)N(C)C(=O)OCCS(C)(=O)=O)C=C(C)C1=O [Example 24]	color after decolorization with 1N NaOH and lowering to pH 1 [4]: remained colorless even at pH 1
